According to patent publication US4004008A, “O-Tertiary amino-alkyl-N-benzoyl tyrosil amides” (priority 1974, dated 1977):
In brackets after ≈: the same amount, converted by molar mass.

Experiments:
rat = assay: Acute toxicity (DL50) i.v. in rat; type: in vivo; details: dose causing death in 50% of the animals
Method in brief: (§1)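 Rat acute toxicity given intravenously; DL50 is the dose in mg/kg body weight that kills 50% of treated animals.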

[1] = test system: intestinal transit of the charcoal; assay: Vegetable carbon (charcoal) intestinal transit test in vivo; set-up: species or system rat; details: i.v., rat, charcoal test, 2 hours
Method in brief: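 Rats fasted 24 h received 0.3 ml oral charcoal/gum arabic suspension together with test substance (i.v., s.c. or oral). Killed at 2 h; animals scored positive when charcoal had not reached the first portion of the colon. ED50 derived from this test.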

[2] = test system: ileum of a cavy (BaCl2 spasm); assay: Antispastic activity in vitro, Magnus method, cavy ileum stimulated with BaCl2; type: cell-based; details: for Antisp. activity in vitro on the ileum of a cavy by Stim. BaCl2: ED50 pap./ED50 CR: ratio to papaverine = 1, Table 1, 37°
Method in brief: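 Isolated guinea-pig ileum in oxygenated nutritive bath at 37°, compound added beforehand to block BaCl2-induced contraction (Magnus method). ED50 is the dose halving spastic contraction; values expressed as ratio to papaverine.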

[3] = test system: caudal artery of a rat (ergotamine tartrate contraction); assay: Antispastic activity on caudal artery of rat stimulated with ergotamine tartrate; type: cell-based; details: ergotamine tartrate 350 μg/ml of perfusion liquid, 50% reduction of contraction
Protocol: An in vitro evaluation of this activity was made upon the caudal artery of a rat, suspended, so that one can register the variation of internal pressure, and contracted with ergotamine tartrate put in to the arterial lumen of the said vessel with a dose of 350 μg/ml of perfusion liquid.
The spasm was antagonised with the compounds being tested. The evaluation was made with ED50, i.e., a concentration of the product in the perfusion liquid expressed as μg/ml able to reduce the contraction thus induced by 50%.
Antispastic activity of some of the claimed compounds upon the caudal artery of a rat stimulated with ergotamine tartrate: values are expressed in ED50 (see specification).

[4] = test system: caudal artery of a rat (electric stimulation); assay: Antispastic activity on caudal artery of rat, electrically stimulated; type: cell-based; details: 50% reduction of response to electric stimulation
Protocol: In another experiment the caudal artery of a rat was electrically stimulated and the pharmaceuticals were added to the bath. The activity was assessed at ED50, i.e., the quantity of pharmaceutical expressed in μg/ml of the perfusion liquid able to reduce by half the response of the electric stimulation compared with that of the checks.
Antispastic activity of some of the compounds claimed on the caudal artery of a rat, electrically stimulated: the values are expressed in ED50 (see Specification).

[5] = Acute toxicity (DL50) i.v. in rat; type: in vivo; details: in vivo, iv, dose causing death in 50% of the animals
Method in brief: as §1

[6] = test system: cavy ileum (serotonine spasm); assay: Antispastic activity in vitro on cavy ileum, spasmiser serotonine; type: cell-based; details: Table 2; ED50 ratio
Protocol: (§2) C. The method in vitro is that of Magnus, with the ileum of the cavy, and is in common use for all evaluations. It consists of extracting the ileum from the cavy and placing it in a receptacle which contains nutritive liquid, suitably oxygenated, and registering the movements of the organ which remains alive for several hours if maintained at a temperature of 37°. According to the traditional method followed by us, BaCl2 is put into the bath as a spasmisant: the reaction is a violent contraction of the organ. This contraction can be prevented by adding beforehand pharmaceuticals which inhibit spasms, and in this case our compounds.
(§3) The activities which have been described so far both in vitro and in vivo can be confirmed using different animals or different organs. These activities are further improved if, instead of BaCl2 other spasmisers are used, such as serotoninehistamine and oxytocine (see Table 2).
(§4) The values contained in the table are expressed as comparison between the
(§5) substance being studied, and they therefore express the activity of the
(§6) compounds compared with known, very active substances.

[7] = test system: cavy ileum (histamine spasm); assay: Antispastic activity in vitro on cavy ileum, spasmiser histamine; type: cell-based; details: Table 2; ED50 ratio
Protocol: as §2, §3, §4, §5, §6

[8] = test system: rat uterus (oxytocine spasm); assay: Antispastic activity in vitro on rat uterus, spasmiser oxytocine; type: cell-based; details: Table 2; ED50 ratio
Description: as §3, §4, §5, §6

urinary bladder of a rat = assay: Urinary bladder movement of anaesthetised rat in vivo; details: intravenous, anaesthetised rat; read-out: Urinary sac of rat in vivo ED50
Description: The in vivo evaluation was made upon the urinary bladder of a rat anaesthetised and placed in an environment heated to the animals body temperature whilst the bladder which is exposed is linked to a system which registers its movement. The pharmaceutilcals were given to the animals by intravenous means.

rat's ureter = assay: Ureter of rat in vitro; type: cell-based; details: Rattus norvegicus; read-out: Ureter of rat in vitro ED50
Description: The in vitro evaluation was made on a rat's ureter suspended in a bath of physiological liquid according to a method similar to the Magnus method already described.

stomach and pylorus = assay: Perfusion outflow of stomach and pylorus (gastro-pyloric spasm by morphine); type: in vivo; details: i.v.; CR 605 5, CR 725 10, CR 603 12.5 mg/kg; morphine 250 μg
Description: (§7) The results shown in this table were obtained by perfusing with a physiological solution, the stomach and the bile ducts respectively and collecting the liquid emerging after the pylorus and the sphineter of Oddi.

[9] = test system: bile ducts (sphincter of Oddi); assay: Perfusion outflow of bile ducts (bile duct spasm by morphine); type: in vivo; details: i.v.; CR 605 5, CR 725 10, CR 603 12.5 mg/kg; morphine 250 μg
Description: as §7

| Structure (SMILES) | DL50 in a rat (rat) | Antisp. activity in transit test: ED50 ([1]; 120 min) | Antisp. activity in vitro on the ileum of a cavy by Stim. BaCl2: ED50 pap./ED50 CR [2] | ED50, caudal artery, ergotamine tartrate [3] | ED50, caudal artery, electrically stimulated [4] | Antisp. activity in transit test: ED50 [1] | LD50 [5] | ED50 ([1]; Rattus norvegicus, iv, 2 h, read-out: Antisp. activity in transit test: ED50) | Antispastic activity in vitro, cavy ileum, BaCl2 (relative to papaverine = 1) ([2]; Table 2, ED50 of test substance papaverine / ED50 of compound) | Antispastic activity in vitro, cavy ileum, serotonine (relative to methysergide = 1) [6] | Antispastic activity in vitro, cavy ileum, histamine (relative to prometazine = 1) [7] | Antispastic activity in vitro, rat uterus, oxytocine (relative to papaverine = 1) [8] | ED50 (urinary bladder of a rat) | IC50 (rat's ureter) | Stomach and pylorus, outflow after the 1st hour (stomach and pylorus) | Stomach and pylorus, outflow after the 2nd hour (stomach and pylorus) | Bile ducts, outflow after the 1st hour [9] | Bile ducts, outflow after the 2nd hour [9] | IC50 ([3]; Rattus norvegicus, read-out: ED50, caudal artery, ergotamine tartrate) | IC50 ([4]; Rattus norvegicus, read-out: ED50, caudal artery, electrically stimulated) |
| --- | --- | --- | --- | --- | --- | --- | --- | --- | --- | --- | --- | --- | --- | --- | --- | --- | --- | --- | --- | --- |
| CCCN(CCC)C(=O)C(Cc1ccc(OCCCN(C)C)cc1)NC(=O)c1ccccc1 (racemic) [CR 816, O-(3-dimethylamino-propyl)-N-benzoyl-DL-tyrosil-di-n-propylamide] | 16.0 mg/kg | 5.5 mg/kg | 2.00 | 12 µg/mL (≈ 26.5 µM) | 7 µg/mL (≈ 15.4 µM) |  |  |  |  |  |  |  |  |  |  |  |  |  |  |  |
| CCCCNC(=O)C(Cc1ccc(OCCN2CCCC2)cc1)NC(=O)c1ccc(C)cc1 (racemic) [CR 651, O-(2-pyrrolidil-N'-ethyl)-N-toluoyl-DL-tyrosil-n-butylamide] | 34.1 mg/kg |  | 1.60 | 37 µg/mL (≈ 81.9 µM) | 19 µg/mL (≈ 42.1 µM) | 16.3 mg/kg |  |  |  |  |  |  |  |  |  |  |  |  |  |  |
| CCCN(CCC)C(=O)C(Cc1ccc(OCCN(C)C)cc1)NC(=O)OCc1ccccc1 [CR 603, O-(2-dimethylamino-ethyl)-N-carbobenzoxy-L-tyrosil-di-n-propylamide] |  |  | 2.40 |  |  |  | 63 mg/kg | 30.5 mg/kg | 2.4 | 0.87 | 0.09 | 0.008 | 6.9 mg/kg | 86 µg/mL (≈ 183 µM) | 157.0 mL | 160.8 mL | 50.3 mL | 48.8 mL | 105 µg/mL (≈ 224 µM) | 76 µg/mL (≈ 162 µM) |
